The subject of the assay is adult cat fleas. As to the kind of experiment: Residual flea efficacy trials on infested cats (Studies A-D). The format is in vivo. The following applies: cleansing system 40 mg/kg vs topical at average 225 mg/kg. How it is done:
The efficacy trials were performed using protocols that required the experimental group of infested cats to be compared with an untreated group of similarly infested animals.
The cleansing emulsion system formulation, containing 0.5% etofenprox was applied to the wet animals at the rate of 8 grams of cleansing system per kg of animal body weight. The 40% etofenprox topical was applied at the rate of 1 ml per cat for weights up to 5 lbs. (2.2 kg) and 2 ml per cat for those weighing greater than 5 lbs. (2.2 kg). The average rate of etofenprox applied to the cleansing system treated cats was 40 mg etofenprox per kg of body weight. The average rate of etofenprox applied to the topical treated cats was 225 mg per kg of body weight.
All test animals were infested with 100 unfed adult cat fleas prior to treatment. The cats were examined for the presence of live fleas at 24 to 48 hours after treatment. Residual data points were accomplished by infesting the treated animals at 14, 21 and 28 days after treatment. The animals were then examined for the presence of live fleas 48 hours after each infestation.

The structures appear in SMILES notation.

On to `CCOc1ccc(C(C)(C)COCc2cccc(Oc3ccccc3)c2)cc1` [Etofenprox], for which the “residual adult flea kill / residual efficacy compared with topical” value is recorded as “residual efficacy results similar to 225 mg/kg BW rates required for topical formulations”.

(Values after patent publication US9149416B1, “High deposition cleansing system” (WELLMARK INTERNATIONAL, priority 2008, dated 2015).)
